The source of these data is patent publication US6077845A, “Acridin derivatives” (Gruenenthal GmbH, priority 1998, dated 2000).

Counter-ions that a name gives are not always drawn.

In this test the target is T1, δ-opiate receptor (Rattus norvegicus, UniProt P33533).
T1 construct: from tissue; host or cells: rat brain (male Wistar) without cerebellum and medulla oblongata, membrane homogenate
T1 sequence (P33533 whole entry): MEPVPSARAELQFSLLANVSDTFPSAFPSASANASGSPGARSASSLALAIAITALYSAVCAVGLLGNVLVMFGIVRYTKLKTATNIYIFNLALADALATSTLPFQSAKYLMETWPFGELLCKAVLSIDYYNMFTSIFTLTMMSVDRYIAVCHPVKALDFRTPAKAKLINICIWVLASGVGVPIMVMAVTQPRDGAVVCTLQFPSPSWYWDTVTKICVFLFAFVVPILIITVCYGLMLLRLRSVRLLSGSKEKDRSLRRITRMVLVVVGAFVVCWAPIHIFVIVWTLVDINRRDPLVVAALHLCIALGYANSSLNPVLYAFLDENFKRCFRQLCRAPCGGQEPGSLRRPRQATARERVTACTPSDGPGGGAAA
As to the kind of experiment: δ-Opiate receptor binding ([3H]-2-D-Ala-deltorphin II displacement, rat brain membrane homogenate). Also on record: species or system rat (male Wistar). The note with it: 1 nmole/l [3H]-2-D-Ala-deltorphin II, 90 minutes at 37° C., pH 7.4, mean ± standard deviation of three independent tests, Ki from IC50 by Cheng-Prussoff. On the procedure: δ-Opiate receptor binding investigations
Tests to determine the affinity of the compounds of formula I according to the invention for δ-opiate receptors were performed on meninx homogenates (homogenates of rat's brain, without the cerebellum and medulla oblongata, taken from male Wistar rats).
For this purpose, freshly prepared rat brains were each homogenised, while being cooled in ice, in 50 mmoles/l Tris-HCl (pH 7.4) and were centrifuged for 10 minutes at 5000 g and […]. After decantation and after rejecting the supernatant liquor, followed by renewed take-up and homogenization of the membrane sediment in 50 mmoles/l Tris-HCl (pH 7.4), the homogenate was subsequently centrifuged for 20 minutes at 20,000 g and […]. This washing step was repeated again. Thereafter, the supernatant liquor was decanted and the membrane sediment was homogenized in cold 50 mmoles/l Tris-HCl, 20% glycerol (w/v), 0.01% bacitracin (w/v) (pH 7.4) and aliquots thereof were frozen until required for testing. For the receptor binding tests, the aliquots were thawed and were diluted 1:10 with the binding test buffer. A solution of […] MgCl2 (pH 7.4), supplemented by 0.1 (w/v) bovine serum albumin, was used as the buffer in the binding tests; 1 nmole/l [^3 H]-2-D-Ala-deltorphin II was used as the radioactive ligand. The proportion of non-specific binding was determined in the presence of 10 μmoles/l naloxon.
In further batches, the compounds according to the invention were added in a series of concentrations and the displacement of the radioactive ligand from its specific binding site was determined. The batches concerned, which were each tested in triplicate, were incubated for 90 minutes at 37° C. and were subsequently harvested in order to determine the radioactive ligand which was bound to the membrane homogenate by filtration through a glass fibre filter (GF/B). The glass fiber filter discs were dried, and the radioactivity thereof was measured in a β-counter after adding a scintillator.
The affinity of the compounds according to the invention for the δ-opiate receptor was calculated as the IC50 value according to the law of mass action, by means of nonlinear regression. Ki values were calculated from the IC50 values using the Cheng-Prussoff equation. The Ki values in Table 1 are given as the mean value±standard deviation of three tests which were independent of each other.
On to `CN(C)CC1=C(c2cccc(O)c2)c2cc3ccccc3nc2CC1(C)C` [3-(2-dimethylaminomethyl-3,3-dimethyl-3,4-dihydro-acridin-1-yl)-phenol hydrochloride], for which the affinity corresponds to a Ki of 29 nM.

`COc1cccc([C@@H]2c3cc4ccccc4nc3CC[C@H]2CN(C)C)c1` (racemic) [rac-trans-[1-(3-methoxy-phenyl)-1,2,3,4-tetrahydro-acridin-2-yl-methyl]-dimethylamine hydrochloride] returned a Ki of 127 nM.

Consider `COc1cccc(C2=C(CN(C)C)CCc3nc4ccccc4cc32)c1` [[1-(3-methoxy-phenyl)-3,4-dihydro-acridin-2-yl-methyl]-dimethylamine hydrochloride], for which the Ki was determined as 133 nM.

For the compound `CN(C)C[C@H]1CCc2nc3ccccc3cc2[C@@H]1c1cccc(O)c1` (relative stereo) [rac-trans-[3-(2-dimethylaminomethyl-1,2,3,4-tetrahydro-acridin-1-yl)]-phenol hydrochloride], the affinity corresponds to a Ki of 4.17 nM.

The compound `CN(C)CC1=C(c2cccc(O)c2)c2cc3ccccc3nc2CC1` [[3-(2-dimethylaminomethyl-3,4-dihydro-acridin-1-yl)]-phenol hydrochloride] returned a Ki of 3.84 nM.
